Molecular target: Recombinant human KIF18A (1-467His-tagged) protein (Homo sapiens (Human), UniProt Q8NI77)
Assay: KIF18A enzyme assay (microtubule-stimulated ATPase activity, ADP-Glo)
Assay type: biochemical
Settings: 30 nM KIF18A, ATP 75 μM, read-out: inhibitory activity against KIF18A IC50
In short: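 Baculovirus-expressed human KIF18A (1-467, His-tagged; 30 nM) preincubated 15 min at room temperature with compound (22-point 2-fold series) in pH 7.5 Tris buffer containing 30 μg/mL pig microtubules and 1 μM paclitaxel.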

Recombinant human KIF18A (1-467His-tagged) protein, sequence (Q8NI77 1-467): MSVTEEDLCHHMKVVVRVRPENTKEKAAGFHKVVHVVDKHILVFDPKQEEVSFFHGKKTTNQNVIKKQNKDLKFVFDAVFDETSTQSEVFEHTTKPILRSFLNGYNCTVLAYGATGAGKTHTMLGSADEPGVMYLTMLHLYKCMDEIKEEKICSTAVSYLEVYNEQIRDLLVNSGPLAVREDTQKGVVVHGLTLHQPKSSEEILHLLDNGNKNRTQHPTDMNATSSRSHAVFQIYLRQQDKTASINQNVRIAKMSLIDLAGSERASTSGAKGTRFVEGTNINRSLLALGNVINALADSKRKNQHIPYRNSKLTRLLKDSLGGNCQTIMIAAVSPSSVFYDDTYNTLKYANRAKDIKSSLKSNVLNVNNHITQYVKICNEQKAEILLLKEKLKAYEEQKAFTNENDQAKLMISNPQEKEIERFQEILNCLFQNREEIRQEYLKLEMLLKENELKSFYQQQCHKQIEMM
Recombinant human KIF18A (1-467His-tagged) protein, sequence (P02550 whole entry partner): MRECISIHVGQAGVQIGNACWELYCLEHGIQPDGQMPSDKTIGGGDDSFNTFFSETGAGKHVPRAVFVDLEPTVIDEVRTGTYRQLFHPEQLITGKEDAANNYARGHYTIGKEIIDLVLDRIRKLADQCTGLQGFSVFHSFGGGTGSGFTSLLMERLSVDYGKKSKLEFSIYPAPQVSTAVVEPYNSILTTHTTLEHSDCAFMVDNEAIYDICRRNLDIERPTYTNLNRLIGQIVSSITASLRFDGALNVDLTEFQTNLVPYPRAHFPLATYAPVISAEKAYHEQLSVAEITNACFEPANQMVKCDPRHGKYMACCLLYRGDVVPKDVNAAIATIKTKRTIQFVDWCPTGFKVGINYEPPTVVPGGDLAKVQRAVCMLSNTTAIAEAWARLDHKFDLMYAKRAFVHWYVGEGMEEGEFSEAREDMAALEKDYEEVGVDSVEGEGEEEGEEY
Recombinant human KIF18A (1-467His-tagged) protein, sequence (P02554 whole entry partner): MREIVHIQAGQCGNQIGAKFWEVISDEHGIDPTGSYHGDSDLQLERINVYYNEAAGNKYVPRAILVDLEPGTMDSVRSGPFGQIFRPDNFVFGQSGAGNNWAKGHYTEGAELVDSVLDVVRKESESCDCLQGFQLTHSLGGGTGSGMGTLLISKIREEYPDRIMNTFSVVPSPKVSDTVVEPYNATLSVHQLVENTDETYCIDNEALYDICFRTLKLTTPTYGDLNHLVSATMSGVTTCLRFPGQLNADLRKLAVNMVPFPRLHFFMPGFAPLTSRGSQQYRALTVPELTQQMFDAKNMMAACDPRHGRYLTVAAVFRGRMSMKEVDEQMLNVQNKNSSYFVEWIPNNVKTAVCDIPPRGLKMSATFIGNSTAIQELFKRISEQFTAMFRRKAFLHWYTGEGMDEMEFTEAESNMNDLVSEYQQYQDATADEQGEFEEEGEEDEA

| SMILES | IC50 |
| --- | --- |
| CN1CCc2cc(C(=O)Nc3ccc(S(=O)(=O)NCCO)cc3N3CCC4(CC3)CC4)nc(N3CCOCC3)c21 [Compound 380] | ≤ 100 nM |
| Cn1ccc2cc(C(=O)Nc3ccc(S(=O)(=O)NCCO)cc3N3CCC4(CC3)CC4)cc(OC3CCC3)c21 [Compound 439] | ≤ 100 nM |
| Cn1ccc2cc(NC(=O)c3ccc(NS(=O)(=O)CCO)cc3N3CCC4(CC3)CC4)nc(NC(C)(C)CO)c21 [Compound 459] | ≤ 100 nM |
| O=C(Nc1cc(OCCC(F)(F)F)c2occc2c1)c1ccc(S(=O)(=O)NCCO)cc1N1CCC2(CC1)CC2 [Compound 149] | ≤ 100 nM |
| C[C@H](CO)NS(=O)(=O)c1ccc(NC(=O)c2cc3c(c(N4CCC(F)(F)CC4)n2)N(C)CC3)c(N2CCC3(CC2)CC3)c1 [Compound 382] | ≤ 100 nM |
| C[C@H](CO)NS(=O)(=O)c1ccc(NC(=O)c2cc3c(c(N4CCO[C@H](C)C4)c2)OCC3)c(N2CCC3(CC2)CC3)c1 [Compound 64] | ≤ 100 nM |
| C[C@H]1CN(c2nc(NC(=O)c3ccc(S(=O)(=O)NCCO)cc3N3CCC4(CC3)CC4)cc3ccoc23)CCO1 [Compound 211] | ≤ 100 nM |
| C[C@@H]1CN(c2nc(C(=O)Nc3ccc(NS(=O)(=O)CCO)cc3N3CCC4(CC3)CC4)cc3c2OCC3)CCO1 [Compound 98] | ≤ 100 nM |
| O=C(Nc1cn2ccnc2c(N2CCC(F)(F)CC2)n1)c1ccc(NS(=O)(=O)CCO)cc1N1CCC2(CC1)CC2 [Compound 536] | ≤ 100 nM |
| O=C(Nc1ccc(NS(=O)(=O)CCO)cc1N1CCC2(CC1)CC2)c1cc2c(c(N3CCOCC3)c1)OCC2 [Compound 44] | ≤ 100 nM |
| C[C@@H]1CN(c2nc(NC(=O)c3ccc(S(=O)(=O)N[C@@H](C)CO)cc3N3CCC4(CC3)CC4)cc3c2OCC3)CCO1 [Compound 95] | ≤ 100 nM |
| C[C@H](CO)S(=O)(=O)Nc1ccc(C(=O)Nc2cc(N3CCC(F)(F)CC3)c3occc3c2)c(N2CCC3(CC2)CC3)c1 [Compound 142] | ≤ 100 nM |
| CN1CCc2cc(NC(=O)c3ccc(S(=O)(=O)NCCO)cc3N3CCC4(CC3)CC4)cc(OCCC(F)(F)F)c21 [Compound 277] | ≤ 100 nM |
| O=C(Nc1cc(N2CC3CC3C2)c2occc2c1)c1ccc(S(=O)(=O)NCCO)cc1N1CCC2(CC1)CC2 (stereo not shown) [Compound 154] | ≤ 100 nM |
| C[C@@H]1CN(c2nc(C(=O)Nc3ccc(NS(=O)(=O)CCO)cc3N3CCC4(CC3)CC4)cc3ccn(C)c23)CCO1 [Compound 482] | ≤ 100 nM |
| CN1CCc2cc(NC(=O)c3ccc(NS(=O)(=O)CCO)cc3N3CCC4(CC3)CC4)cc(OCCC(F)(F)F)c21 [Compound 261] | ≤ 100 nM |
| C[C@@H]1CN(c2cc(C(=O)Nc3ccc(S(=O)(=O)N[C@@H](C)CO)cc3N3CCC4(CC3)CC4)cc3ccoc23)CCO1 [Compound 191] | ≤ 100 nM |
| Cn1ccc2cc(C(=O)Nc3ccc(NS(=O)(=O)CCO)cc3N3CCC4(CC3)CC4)cc(OCCC(F)(F)F)c21 [Compound 421] | ≤ 100 nM |
| C[C@@H]1CN(c2nc(C(=O)Nc3ccc(NS(=O)(=O)[C@@H](C)CO)cc3N3CCC4(CC3)CC4)cc3c2OCC3)CCO1 [Compound 111] | ≤ 100 nM |
| O=C(Nc1ccc(S(=O)(=O)NCCO)cc1N1CCC2(CC1)CC2)c1cc2c(c(N3CC4CC4C3)c1)OCC2 (stereo not shown) [Compound 58] | ≤ 100 nM |
| O=C(Nc1cc2c(c(N3CCOCC3)c1)OCC2)c1ccc(S(=O)(=O)NCCO)cc1N1CCC2(CC1)CC2 [Compound 28] | ≤ 100 nM |
| O=C(Nc1cc(N2CC(F)(F)C2)c2occc2c1)c1ccc(S(=O)(=O)NCCO)cc1N1CCC2(CC1)CC2 [Compound 148] | ≤ 100 nM |
| CN1CCc2cc(C(=O)Nc3ccc(S(=O)(=O)NCCO)cc3N3CCC4(CC3)CC4)nc(N3CCC(F)(F)CC3)c21 [Compound 369] | ≤ 100 nM |
| C[C@@H](CO)NS(=O)(=O)c1ccc(NC(=O)c2cc(N3CCC(F)(F)CC3)c3c(ccn3C)c2)c(N2CCC3(CC2)CC3)c1 [Compound 445] | ≤ 100 nM |

Further lines, results first:

| IC50 | SMILES |
| --- | --- |
| ≤ 100 nM | Cn1ccc2cc(C(=O)Nc3ccc(S(=O)(=O)NCCO)cc3N3CCC4(CC3)CC4)nc(N3CC(F)(F)C3)c21 [Compound 500] |
| ≤ 100 nM | Cn1ccc2cc(NC(=O)c3ccc(S(=O)(=O)NCCO)cc3N3CCC4(CC3)CC4)cc(N3CCC(F)(F)CC3)c21 [Compound 401] |
| ≤ 100 nM | Cn1ccc2cc(C(=O)Nc3ccc(NS(=O)(=O)CCO)cc3N3CCC4(CC3)CC4)cc(N3CCOCC3)c21 [Compound 428] |
| ≤ 100 nM | CN1CCc2cc(NC(=O)c3ccc(S(=O)(=O)NCCO)cc3N3CCC4(CC3)CC4)cc(N3CCOCC3)c21 [Compound 284] |
| ≤ 100 nM | O=C(Nc1ccc(NS(=O)(=O)CCO)cc1N1CCC2(CC1)CC2)c1cc2c(c(OC3CCC3)c1)OCC2 [Compound 39] |
| ≤ 100 nM | C[C@H]1CN(c2cc(C(=O)Nc3ccc(NS(=O)(=O)CCO)cc3N3CCC4(CC3)CC4)cc3c2N(C)CC3)CCO1 [Compound 291] |
| ≤ 100 nM | Cn1ccc2cc(NC(=O)c3ccc(S(=O)(=O)NCCO)cc3N3CCC4(CC3)CC4)nc(N3CCC(C)(F)C3)c21 (stereo not shown) [Compound 472] |
| ≤ 100 nM | C[C@@H](CO)S(=O)(=O)Nc1ccc(NC(=O)c2cc(N3CCC(F)(F)CC3)c3occc3c2)c(N2CCC3(CC2)CC3)c1 [Compound 173] |
| ≤ 100 nM | CC(C)(CO)Nc1cc(NC(=O)c2ccc(NS(=O)(=O)CCO)cc2N2CCC3(CC2)CC3)cc2c1OCC2 [Compound 11] |
| ≤ 100 nM | C[C@H](CO)NS(=O)(=O)c1ccc(C(=O)Nc2cc(N3CCO[C@H](C)C3)c3c(ccn3C)c2)c(N2CCC3(CC2)CC3)c1 [Compound 416] |
| ≤ 100 nM | CN1CCc2cc(C(=O)Nc3ccc(S(=O)(=O)NCCO)cc3N3CCC4(CC3)CC4)nc(OCCC(F)(F)F)c21 [Compound 373] |
| ≤ 100 nM | C[C@@H](CO)S(=O)(=O)Nc1ccc(NC(=O)c2cc(N3CCC(F)(F)CC3)c3c(ccn3C)c2)c(N2CCC3(CC2)CC3)c1 [Compound 429] |
| ≤ 100 nM | C[C@@H]1CN(c2nc(NC(=O)c3ccc(NS(=O)(=O)[C@@H](C)CO)cc3N3CCC4(CC3)CC4)cc3ccoc23)CCO1 [Compound 207] |
| ≤ 100 nM | C[C@@H]1CN(c2nc(NC(=O)c3ccc(S(=O)(=O)NCCO)cc3N3CCC4(CC3)CC4)cc3c2N(C)CC3)CCO1 [Compound 338] |
| ≤ 100 nM | Cn1ccc2cc(C(=O)Nc3ccc(NS(=O)(=O)CCO)cc3N3CCC4(CC3)CC4)nc(N3CCC4(CC4)C3)c21 [Compound 486] |
| ≤ 100 nM | C[C@H](CO)S(=O)(=O)Nc1ccc(NC(=O)c2cc3ccoc3c(N3CCC(F)(F)CC3)n2)c(N2CCC3(CC2)CC3)c1 [Compound 238] |
| ≤ 100 nM | C[C@@H]1CN(c2cc(C(=O)Nc3ccc(S(=O)(=O)NCCO)cc3N3CCC4(CC3)CC4)cc3c2N(C)CC3)CCO1 [Compound 306] |
| ≤ 100 nM | Cn1ccc2cc(C(=O)Nc3ccc(NS(=O)(=O)CCO)cc3N3CCC4(CC3)CC4)nc(N3CCC(F)CC3)c21 [Compound 489] |
| ≤ 100 nM | C[C@H](CO)S(=O)(=O)Nc1ccc(C(=O)Nc2cc3ccn(C)c3c(N3CCC(F)(F)CC3)n2)c(N2CCC3(CC2)CC3)c1 [Compound 462] |
| ≤ 100 nM | C[C@@H](CO)NS(=O)(=O)c1ccc(C(=O)Nc2cc3c(c(N4CCC(F)(F)CC4)c2)N(C)CC3)c(N2CCC3(CC2)CC3)c1 [Compound 285] |
| ≤ 100 nM | Cn1ccc2cc(C(=O)Nc3ccc(S(=O)(=O)NCCO)cc3N3CCC4(CC3)CC4)cc(OCCC(F)(F)F)c21 [Compound 437] |
| ≤ 100 nM | CN1CCc2cc(NC(=O)c3ccc(S(=O)(=O)NCCO)cc3N3CCC4(CC3)CC4)nc(OC3CCC3)c21 [Compound 343] |

— US20250197382A1, “KIF18A INHIBITOR” (WIGEN BIOMEDICINE TECHNOLOGY (SHANGHAI) CO., LTD., priority 2022, published 2025)
